Reference: paper PMC11945486, “TAS1R2/TAS1R3 Single-Nucleotide Polymorphisms Affect Sweet Taste Receptor Activation by Sweeteners: The SWEET Project” (Nutrients, 2025)
No end group written: not given here.

T1: human TAS1R2-WT/TAS1R3-S551N (Homo sapiens, UniProt Q7RTX0+Q8TE23, S551N)
T1 construct: expressed in transfected cells; host or cells: HEK293T stably expressing Gα16gust44
T1 sequence (Q8TE23 20-839): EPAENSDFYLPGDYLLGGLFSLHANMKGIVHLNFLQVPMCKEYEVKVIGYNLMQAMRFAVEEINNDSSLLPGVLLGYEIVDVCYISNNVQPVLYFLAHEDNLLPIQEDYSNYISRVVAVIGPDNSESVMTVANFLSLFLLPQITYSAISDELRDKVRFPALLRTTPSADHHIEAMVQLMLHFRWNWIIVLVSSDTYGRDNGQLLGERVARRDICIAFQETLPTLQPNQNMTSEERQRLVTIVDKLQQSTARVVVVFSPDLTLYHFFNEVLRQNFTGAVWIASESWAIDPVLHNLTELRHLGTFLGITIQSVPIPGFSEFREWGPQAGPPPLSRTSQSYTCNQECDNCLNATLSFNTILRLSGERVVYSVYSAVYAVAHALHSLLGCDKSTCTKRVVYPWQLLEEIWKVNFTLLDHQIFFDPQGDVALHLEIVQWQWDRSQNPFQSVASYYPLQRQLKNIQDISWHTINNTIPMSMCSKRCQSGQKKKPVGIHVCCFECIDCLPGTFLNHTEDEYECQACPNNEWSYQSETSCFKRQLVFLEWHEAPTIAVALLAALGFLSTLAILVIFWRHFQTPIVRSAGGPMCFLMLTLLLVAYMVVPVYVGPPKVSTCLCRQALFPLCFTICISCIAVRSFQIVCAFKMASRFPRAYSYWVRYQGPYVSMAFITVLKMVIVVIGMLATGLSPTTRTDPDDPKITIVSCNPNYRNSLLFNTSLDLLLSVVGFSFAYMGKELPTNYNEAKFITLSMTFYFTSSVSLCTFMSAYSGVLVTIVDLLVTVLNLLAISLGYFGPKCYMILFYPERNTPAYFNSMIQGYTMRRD
T1 sequence (Q7RTX0 21-852 S551N): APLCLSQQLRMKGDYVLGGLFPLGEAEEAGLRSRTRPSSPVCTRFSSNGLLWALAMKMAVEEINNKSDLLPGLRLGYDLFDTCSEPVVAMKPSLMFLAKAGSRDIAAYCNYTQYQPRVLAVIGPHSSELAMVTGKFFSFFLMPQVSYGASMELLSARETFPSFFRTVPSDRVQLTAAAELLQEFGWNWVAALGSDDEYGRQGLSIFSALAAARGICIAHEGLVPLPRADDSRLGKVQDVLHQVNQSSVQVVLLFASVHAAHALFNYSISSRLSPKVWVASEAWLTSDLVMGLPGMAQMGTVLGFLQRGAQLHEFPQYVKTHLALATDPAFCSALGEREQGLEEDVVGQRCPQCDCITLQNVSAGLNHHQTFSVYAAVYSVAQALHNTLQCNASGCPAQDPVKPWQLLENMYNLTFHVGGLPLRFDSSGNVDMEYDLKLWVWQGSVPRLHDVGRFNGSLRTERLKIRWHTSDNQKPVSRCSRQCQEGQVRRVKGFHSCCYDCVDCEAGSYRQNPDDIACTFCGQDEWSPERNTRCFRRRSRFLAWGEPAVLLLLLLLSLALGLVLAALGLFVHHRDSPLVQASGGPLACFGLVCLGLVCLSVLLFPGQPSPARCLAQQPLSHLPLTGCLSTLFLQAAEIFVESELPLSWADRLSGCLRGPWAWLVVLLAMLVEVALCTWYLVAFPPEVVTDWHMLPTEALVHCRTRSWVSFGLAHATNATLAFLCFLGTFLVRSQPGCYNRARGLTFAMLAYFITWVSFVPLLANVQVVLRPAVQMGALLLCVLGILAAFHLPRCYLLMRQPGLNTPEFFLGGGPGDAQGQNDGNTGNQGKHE


Biological target: T1, human TAS1R2-WT/TAS1R3-S551N
Test: Calcium mobilisation assay, TAS1R2-WT with TAS1R3 variant S551N
Assay type: cell-based
Details: for Max ΔF/F0: maximal signal amplitude; for Max ΔF/F0 / EC50: "-": no activation
Text: The coding sequences for TAS1R2 and TAS1R3 were commercially synthesised, and the human codon was optimised for expression in human cells. The coding sequences of human TAS1R2 and TAS1R3 were subcloned and inserted into the mammalian expression vectors pcDNA6/myc-HisA and pcDNA4/myc-HisA (Invitrogen; Thermo Fisher Scientific; Illkirch, France) between the EcoRI and NotI restriction sites, generating the plasmids pcDNA6-TAS1R2 and pcDNA4-TAS1R3, respectively. To increase protein expression in mammalian cells, an upstream start codon was used, which was a sequence called MAX, corresponding to the QBI SP163 element also described in pcDNA4-HisMax (Invitrogen; Thermo Fisher Scientific; Illkirch, France). To measure the expression level of the receptor by immunohistochemistry, we used the FLAG sequence ([…]) in the C-terminal position, which encodes the FLAG tag epitope. SNP variants of TAS1R2 and TAS1R3 were constructed based on […], respectively, using site-directed mutagenesis (Genewiz; Leipzig, Germany).
The HEK293T cells were kindly provided by Jay P. Slack (Givaudan Flavors Corporation; Cincinnati, OH, USA). HEK293T cells stably transfected with Gα16gust44 [43, 67] were seeded in poly-D-lysine-coated clear-bottom black 96-well plates (0.35 × 10^5 cells/well) in high-glucose DMEM supplemented with 2 mM GlutaMAX, 10% dialysed foetal bovine serum with penicillin/streptomycin and G418 (400 μg/mL) at 37 °C and 6.3% CO2 in a humidified atmosphere as previously reported. […] As a negative control, HEK293T cells were mock-transfected with the empty expression vector. After a further 24 h of incubation, the HEK293T cells were washed with C1 buffer (130 mM NaCl, 5 mM KCl, 10 mM HEPES pH 7.4 and 2 mM CaCl2). The 96-well plates containing the cells were then stimulated with sweet-tasting compounds. […] Different concentration ranges were tested depending on the sweet compound injected. The Ca^2+ changes were expressed as fractional changes in fluorescent light intensity: ΔF/F = (F − F0)/F0, where F was the fluorescent light intensity at each point, and F0 was the value of emitted fluorescent light prior to stimulus application. To calculate dose–response relationships, the changes in fluorescence upon stimulus application were averaged, mock-subtracted and baseline-corrected. The dose–response data obtained were adjusted using a 4-parameter logistic equation. The half-maximal effective concentrations (EC50 values) and maximal signal amplitudes were calculated using SigmaPlot software (version 15.0) (Systat Software; San Jose, CA, USA).
For in vitro calcium mobilisation assay performed on hTAS1R2-SNPs, hTAS1R3-SNPs and mTAS1R3-I60T, 6 to 7 concentrations were tested for each sweet compound, plus buffer alone. All concentration–receptor combinations were measured in duplicate, and each experiment was repeated at least 4 times (8 wells/concentration). Results were expressed for each concentration as ΔF/F mean ± SEM and represented as dose–response curves.

Row | R1 = Variant EC50/WT EC50 | Max ΔF/F0 | EC50 | Molecule
1 | 3.6 | 0.52 ± 0.04 | 49.2 ± 13.6 µM | C=C(C)[C@@H]1CC=C(/C=N/O)CC1 [Perillartine, perillartine]
2 | 21.1 | 0.21 ± 0.21 | – | brazzein (QDKCKKVYENYPVSKCQLANQCNYDCKLDKHARSGECFYDEKRNLQCICDYCEY; ends and bridges not checked; cysteine pairing not given here; UniProt P56552 1-54, looked up) [sweet-tasting protein obtained by recombinant production using the yeast Pichia pastoris]
3 | 1.7 | 0.25 ± 0.01 | – | thaumatin
4 | – | – | 17.4 ± 2.2 µM | thaumatin (protein, Eight disulfides, sweet-tasting plant protein, E957) ATFEIVNRCSYTVWAAASKGDAALDAGGRQLNSGESWTINVEPGTKGGKIWARTDCYFDDSGSGICKTGDCGGLLRCKRFGRPPTTLAEFSLNQYGKDYIDISNIKGFNVPMDFSPTTRGCRGVRCAADIVGQCPAKLKAPGGGCNDACTVFQTSEYCCTTGKCGPTEYSRFFKRLCPDAFSYVLDKPTTVTCPGSSNYRVTFCPTA

Row | Molecule | R1 = Variant EC50/WT EC50 | Max ΔF/F0 | EC50
5 | C[C@H](CC[C@@H](O[C@@H]1O[C@H](CO[C@@H]2O[C@H](CO)[C@@H](O)[C@H](O)[C@H]2O)[C@@H](O)[C@H](O)[C@H]1O[C@@H]1O[C@H](CO)[C@@H](O)[C@H](O)[C@H]1O)C(C)(C)O)[C@H]1CC[C@@]2(C)[C@@H]3CC=C4[C@@H](CC[C@H](O[C@@H]5O[C@H](CO[C@@H]6O[C@H](CO)[C@@H](O)[C@H](O)[C@H]6O)[C@@H](O)[C@H](O)[C@H]5O)C4(C)C)[C@]3(C)[C@H](O)C[C@]12C [Mogroside V, mogroside V] | 3.6 | 0.03 | –
